According to publication PMC11961743 (Nature Communications, 2025):

Tested on: SdPT
Test: HPLC prenylation assay, yeast microsomes
Assay type: biochemical, Saposhnikovia divaricata
Conditions: saturating DMAPP and MgCl2; optimum pH 10.0, 45 °C

- Km: 29.1 µM
SMILES: Cc1cc(=O)c2c(O)cc(O)cc2o1 [compound 2, noreugenin]
